Measurements: patent publication US20220241312A1, “COMPOUNDS FOR TREATING CANCER” (Tems Pharmaceuticals, Inc., priority 2019, published 2022)
Where a name gives a salt, the structure may show the parent alone.

How the values were obtained:
[1] = system: pancreatic cell line PANC-1; assay: Cytotoxicity assay (CellTiter Glo), PANC-1; type: cell-based; settings: Homo sapiens, 72 h or 120 h incubation, Compound No. 1 tested as TEA salt
Method: (§1) Cytotoxicity of the test compounds were determined for multiple cell lines including gastric cancer cell lines NCI-N-87-luc and MKN45; liver cancer cell lines HepG2, Hep3B, and Huh7; pancreatic cell lines MIAPACA-2 and PANC-1; and colon cancer cell lines HT-29 and HCT-116.
(§2) Test compounds were prepared as 10 mM stock solutions. 5-FU, the control compound, was also prepared as a 10 mM stock solution. 45 μL of stock solution was transferred to a 384 polypropylene plate. The test and control compounds were then serially diluted 3 fold 10 times by transferring 15 μL compound solution into 30 μL DMSO by using TECAN (EVO200) liquid handler. […]
(§3) For each cell line assayed, cells were grown in a flask and then were harvested from the flask into cell culture medium. The cell number was counted and the cells were diluted with cell culture medium to the 2.5*10^4 cells/mL. […]
(§4) The cell culture plates were covered with a lid, placed at room temperature for 30 min without shaking, and transferred into a 37° C. […] On the desired day, cytotoxicity of the compounds was detected using CellTiter Glo. […] 40 μL of CellTiter-Glo reagent was added into each well to be detected (at 1:1 to culture medium). The plates were placed at room temperature for 30 min and then luminescence was detected using an EnSpire plate reader. […]

[2] = system: liver cancer cell line HepG2; assay: Cytotoxicity assay (CellTiter Glo), HepG2; type: cell-based; settings: Homo sapiens, 72 h or 120 h incubation, Compound No. 1 tested as TEA salt
Method: as §1, §2, §3, §4

[3] = biological target: T1, dihydropyrimidine dehydrogenase (DPD) (Homo sapiens, UniProt Q12882); settings: background statement; cited from earlier work
T1 sequence (Q12882 4-1025): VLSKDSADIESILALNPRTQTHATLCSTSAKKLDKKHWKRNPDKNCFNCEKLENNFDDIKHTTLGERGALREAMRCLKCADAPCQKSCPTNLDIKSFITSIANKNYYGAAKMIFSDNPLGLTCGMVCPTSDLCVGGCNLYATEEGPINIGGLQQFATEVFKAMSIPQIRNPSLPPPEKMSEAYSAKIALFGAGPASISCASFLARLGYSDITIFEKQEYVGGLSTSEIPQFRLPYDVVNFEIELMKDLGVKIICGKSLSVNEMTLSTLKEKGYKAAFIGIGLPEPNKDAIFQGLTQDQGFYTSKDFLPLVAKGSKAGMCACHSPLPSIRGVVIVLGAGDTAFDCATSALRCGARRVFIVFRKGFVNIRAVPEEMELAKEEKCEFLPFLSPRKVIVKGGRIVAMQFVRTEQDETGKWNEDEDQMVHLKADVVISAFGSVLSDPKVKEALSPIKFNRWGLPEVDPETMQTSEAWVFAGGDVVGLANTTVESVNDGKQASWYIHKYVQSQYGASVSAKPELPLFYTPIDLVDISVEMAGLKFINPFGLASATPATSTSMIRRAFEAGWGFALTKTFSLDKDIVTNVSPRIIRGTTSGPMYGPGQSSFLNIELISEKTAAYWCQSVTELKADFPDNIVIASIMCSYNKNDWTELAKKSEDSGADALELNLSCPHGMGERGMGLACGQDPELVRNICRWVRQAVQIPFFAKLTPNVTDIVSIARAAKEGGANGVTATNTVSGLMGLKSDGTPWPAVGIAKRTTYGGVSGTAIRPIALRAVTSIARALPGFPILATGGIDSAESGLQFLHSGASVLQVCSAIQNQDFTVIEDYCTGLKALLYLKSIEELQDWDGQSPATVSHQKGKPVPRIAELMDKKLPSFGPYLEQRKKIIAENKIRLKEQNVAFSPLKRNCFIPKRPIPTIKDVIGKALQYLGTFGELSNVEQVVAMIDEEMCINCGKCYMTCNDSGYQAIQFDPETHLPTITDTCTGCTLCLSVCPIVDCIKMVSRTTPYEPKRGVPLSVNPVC

[4] = system: gastric cancer cell line NCI-N-87-luc; assay: Cytotoxicity assay (CellTiter Glo), NCI-N-87-luc; type: cell-based; settings: 72 h or 120 h incubation, Compound No. 1 tested as TEA salt
Method: as §1, §2, §3, §4

[5] = system: pancreatic cell line MIAPACA-2; assay: Cytotoxicity assay (CellTiter Glo), MIAPACA-2; type: cell-based; settings: Homo sapiens, MIA PaCa-2, 72 h or 120 h incubation, Compound No. 1 tested as TEA salt
Method: as §1, §2, §3, §4

[6] = system: gastric cancer cell line MKN45; assay: Cytotoxicity assay (CellTiter Glo), MKN45; type: cell-based; settings: Homo sapiens, MKN-45, 72 h or 120 h incubation, Compound No. 1 tested as TEA salt
Method: as §1, §2, §3, §4

[7] = system: colon cancer cell line HCT-116; assay: Cytotoxicity assay (CellTiter Glo), HCT-116; type: cell-based; settings: Homo sapiens, 72 h or 120 h incubation, Compound No. 1 tested as TEA salt
Method: as §1, §2, §3, §4

[8] = system: liver cancer cell line Hep3B; assay: Cytotoxicity assay (CellTiter Glo), Hep3B; type: cell-based; settings: Homo sapiens, 72 h or 120 h incubation, Compound No. 1 tested as TEA salt
Method: as §1, §2, §3, §4

[9] = system: colon cancer cell line HT-29; assay: Cytotoxicity assay (CellTiter Glo), HT-29; type: cell-based; settings: Homo sapiens, 72 h or 120 h incubation, Compound No. 1 tested as TEA salt
Method: as §1, §2, §3, §4

[10] = system: liver cancer cell line Huh7; assay: Cytotoxicity assay (CellTiter Glo), Huh7; type: cell-based; settings: Homo sapiens, Huh-7, 72 h or 120 h incubation, Compound No. 1 tested as TEA salt
Method: as §1, §2, §3, §4

Row | Structure (SMILES) | CC50 [1] [nM] | CC50 [2] [nM] | fraction catabolized by dihydropyrimidine dehydrogenase (DPD) to pharmacodynamically inactive metabolites [3] | CC50 [4] [nM] | CC50 [5] [nM] | CC50 [6] [nM] | CC50 [7] [nM] | CC50 [8] [nM] | CC50 [9] [nM] | CC50 [10] [nM]
1 | O=c1[nH]cc(F)c(=O)[nH]1 [5-FU, 5-Fluorouracil] | 8260 | 1740 | 80-85% | 3990 | 13100 | 1680 | 6800 | 3670 | 14800 | 7300
2 | CC(C)OC(=O)OCn1c(=O)c(F)cn([C@H]2C[C@@H]3OP(=O)(O)OC[C@H]3O2)c1=O [Compound No. 1, (4aR,6R,7aS)-6-(5-fluoro-3-(((isopropoxycarbonyl)oxy)methyl)-2,4-dioxo-3,4-dihydropyrimidin-1(2H)-yl)tetrahydro-4H-furo[3,2-d][1,3,2]dioxaphosphinin-2-olate 2-oxide triethylamine salt] | 706 | 314 | – | 515 | 60 | 21 | 411 | 45 | 15 | 13
